Experimental findings from US9771369B2, “Compounds and methods for kinase modulation, and indications therefor” (Plexxikon Inc., priority 2014, dated 2017) are described below.

By IC50 is commonly meant the concentration that inhibits the measured activity by half.

c-kit mutant D816V, sequence (P10721 other isoform, or with tags, fused parts or gaps D816V/del 694-753): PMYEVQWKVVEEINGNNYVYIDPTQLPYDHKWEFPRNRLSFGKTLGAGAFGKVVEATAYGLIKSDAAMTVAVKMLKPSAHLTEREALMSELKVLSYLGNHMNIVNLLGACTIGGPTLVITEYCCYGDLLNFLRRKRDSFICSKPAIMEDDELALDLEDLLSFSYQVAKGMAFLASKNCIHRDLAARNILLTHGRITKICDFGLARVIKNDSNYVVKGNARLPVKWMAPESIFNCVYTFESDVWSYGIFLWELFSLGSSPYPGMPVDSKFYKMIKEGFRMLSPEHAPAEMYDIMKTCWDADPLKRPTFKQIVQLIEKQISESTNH

The target of this assay is c-kit mutant D816V (Homo sapiens (Human), UniProt P10721, D816V/DEL694-753). Description: c-Kit mutant D816V biochemical assay (AlphaScreen kinase activity). A digest of the protocol:
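Recombinant His-tagged c-Kit D816V kinase domain (residues 551-934, insert 694-753 deleted, E. coli-expressed) phosphorylating 30 nM biotin-(E4Y)10 with 10 μM ATP, HEPES pH 7.2, Mg/Mn, 5% DMSO; 30 min, room temperature. Phosphorylation detected by AlphaScreen (streptavidin donor/PY30 acceptor beads); IC50 from 8-point 1:3 series.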
The compound `COc1cc(-c2cc3c(N4CCC(c5nc(C)c(-c6cccc(OC(F)(F)F)c6)[nH]5)CC4)ncnc3[nH]2)ccn1` [P-3014, 6-(2-methoxy-4-pyridyl)-4-[4-[4-methyl-5-[3-(trifluoromethoxy)phenyl]-1H-imidazol-2-yl]-1-piperidyl]-7H-pyrrolo[2,3-d]pyrimidine] displayed an IC50 of 0.0001 to 1 µM.

In turn, `COc1ccc(-c2[nH]c(C3CCN(c4ncnc5[nH]c(-c6ccc(C#N)cc6)cc45)CC3)nc2C)cc1` [P-3015, 4-[4-[4-[5-(4-methoxyphenyl)-4-methyl-1H-imidazol-2-yl]-1-piperidyl]-7H-pyrrolo[2,3-d]pyrimidin-6-yl]benzonitrile] gave an IC50 of 0.0001 to 1 µM.

The compound `Cc1nc(C2CCN(c3ncnc4[nH]c(-c5ccc(C#N)cc5)cc34)CC2)[nH]c1-c1cccc(F)c1` [P-3016, 4-[4-[4-[5-(3-fluorophenyl)-4-methyl-1H-imidazol-2-yl]-1-piperidyl]-7H-pyrrolo[2,3-d]pyrimidin-6-yl]benzonitrile] registered an IC50 of 0.0001 to 1 µM.

Compound `COc1ccc(-c2[nH]c(C3CCN(c4ncnc5[nH]c(-c6ccnc(OC)c6)cc45)CC3)nc2C)cc1` [P-3017, 4-[4-[5-(4-methoxyphenyl)-4-methyl-1H-imidazol-2-yl]-1-piperidyl]-6-(2-methoxy-4-pyridyl)-7H-pyrrolo[2,3-d]pyrimidine] yielded an IC50 of 0.0001 to 1 µM.

Compound `COc1ccc(-c2[nH]c(C3CCN(c4ncnc5[nH]c(-c6ccc(C#N)cc6)cc45)CC3)nc2C)cc1F` [P-3018, 4-[4-[4-[5-(3-fluoro-4-methoxy-phenyl)-4-methyl-1H-imidazol-2-yl]-1-piperidyl]-7H-pyrrolo[2,3-d]pyrimidin-6-yl]benzonitrile] came in with an IC50 of 0.0001 to 1 µM.

`CCOc1ccc(-c2[nH]c(C3(C)CCN(c4ncnc5[nH]c(-c6ccc(OC)nc6)cc45)CC3)nc2C)cc1` [P-3171, 4-[4-[5-(4-ethoxyphenyl)-4-methyl-1H-imidazol-2-yl]-4-methyl-1-piperidyl]-6-(6-methoxy-3-pyridyl)-7H-pyrrolo[2,3-d]pyrimidine]: the IC50 lay in the range of 0.0001 to 1 µM.

`COc1ccc(-c2[nH]c(C3(C)CCN(c4ncnc5[nH]c(-c6ccc(C#N)cc6)cc45)CC3)nc2C)cn1` [P-3172, 4-[4-[4-[5-(6-methoxy-3-pyridyl)-4-methyl-1H-imidazol-2-yl]-4-methyl-1-piperidyl]-7H-pyrrolo[2,3-d]pyrimidin-6-yl]benzonitrile] registered an IC50 of 0.0001 to 1 µM.

In turn, `COc1ncc(-c2[nH]c(C3CCN(c4ncnc5[nH]c(-c6ccc(C#N)cc6)cc45)CC3)nc2C)cc1F` [P-3173, 4-[4-[4-[5-(5-fluoro-6-methoxy-3-pyridyl)-4-methyl-1H-imidazol-2-yl]-1-piperidyl]-7H-pyrrolo[2,3-d]pyrimidin-6-yl]benzonitrile] came in with an IC50 of 0.0001 to 1 µM.

`Cc1nc(C2(C)CCN(c3ncnc4[nH]c(-c5cnn(C(F)F)c5)cc34)CC2)[nH]c1-c1ccc(Cl)cc1` [P-3175, 4-[4-[5-(4-chlorophenyl)-4-methyl-1H-imidazol-2-yl]-4-methyl-1-piperidyl]-6-[1-(difluoromethyl)pyrazol-4-yl]-7H-pyrrolo[2,3-d]pyrimidine] came in with an IC50 of 0.0001 to 1 µM.

`COc1ccc(-c2cc3c(N4CCC(C)(c5nc(C)c(-c6ccc(Cl)cc6)[nH]5)CC4)ncnc3[nH]2)cn1` [P-3176, 4-[4-[5-(4-chlorophenyl)-4-methyl-1H-imidazol-2-yl]-4-methyl-1-piperidyl]-6-(6-methoxy-3-pyridyl)-7H-pyrrolo[2,3-d]pyrimidine] returned an IC50 of 0.0001 to 1 µM.

For `Cc1nc(C2(C)CCN(c3ncnc4[nH]c(-c5ccc(C#N)cc5)cc34)CC2)[nH]c1-c1ccc(C(F)(F)F)cc1` [P-3177, 4-[4-[4-methyl-4-[4-methyl-5-[4-(trifluoromethyl)phenyl]-1H-imidazol-2-yl]-1-piperidyl]-7H-pyrrolo[2,3-d]pyrimidin-6-yl]benzonitrile], the IC50 was 0.0001 to 1 µM.

For the compound `COc1ccc(-c2cc3c(N4CCC(C)(c5nc(C)c(-c6ccc(C(F)(F)F)cc6)[nH]5)CC4)ncnc3[nH]2)cn1` [P-3178, 6-(6-methoxy-3-pyridyl)-4-[4-methyl-4-[4-methyl-5-[4-(trifluoromethyl)phenyl]-1H-imidazol-2-yl]-1-piperidyl]-7H-pyrrolo[2,3-d]pyrimidine], the IC50 is 0.0001 to 1 µM.

Compound `Cc1nc(C2(C)CCN(c3ncnc4[nH]c(-c5cnn(C(F)F)c5)cc34)CC2)[nH]c1-c1ccc(C(F)(F)F)cc1` [P-3179, 6-[1-(difluoromethyl)pyrazol-4-yl]-4-[4-methyl-4-[4-methyl-5-[4-(trifluoromethyl)phenyl]-1H-imidazol-2-yl]-1-piperidyl]-7H-pyrrolo[2,3-d]pyrimidine] registered an IC50 of 0.0001 to 1 µM.

Consider `Cc1nc(C2(C)CCN(c3ncnc4[nH]c(-c5ccc(C#N)cc5)cc34)CC2)[nH]c1-c1ccc(Cl)cc1` [P-3180, 4-[4-[4-[5-(4-chlorophenyl)-4-methyl-1H-imidazol-2-yl]-4-methyl-1-piperidyl]-7H-pyrrolo[2,3-d]pyrimidin-6-yl]benzonitrile], for which the IC50 lay within 0.0001 to 1 µM.

`COc1ncc(-c2[nH]c(C3(C)CCN(c4ncnc5[nH]c(-c6ccc(C#N)cc6)cc45)CC3)nc2C)cc1F` [P-3181, 4-[4-[4-[5-(5-fluoro-6-methoxy-3-pyridyl)-4-methyl-1H-imidazol-2-yl]-4-methyl-1-piperidyl]-7H-pyrrolo[2,3-d]pyrimidin-6-yl]benzonitrile] yielded an IC50 of 0.0001 to 1 µM.

Regarding `COc1ccc(-c2[nH]c(C3(C)CCN(c4ncnc5[nH]c(-c6cnn(C(F)F)c6)cc45)CC3)nc2C)cn1` [P-3182, 6-[1-(difluoromethyl)pyrazol-4-yl]-4-[4-[5-(6-methoxy-3-pyridyl)-4-methyl-1H-imidazol-2-yl]-4-methyl-1-piperidyl]-7H-pyrrolo[2,3-d]pyrimidine], the IC50 is 0.0001 to 1 µM.

As for `COc1ccc(-c2[nH]c(C3(C)CCN(c4ncnc5[nH]c(C)cc45)CC3)nc2C)cc1F` [P-3183, 4-[4-[5-(3-fluoro-4-methoxy-phenyl)-4-methyl-1H-imidazol-2-yl]-4-methyl-1-piperidyl]-6-methyl-7H-pyrrolo[2,3-d]pyrimidine], the IC50 was in the range of 0.0001 to 1 µM.

Turning to `Cc1cc2c(N3CCC(C)(c4nc(C)c(-c5ccc(C(F)F)cc5)[nH]4)CC3)ncnc2[nH]1` [P-3184, 4-[4-[5-[4-(difluoromethyl)phenyl]-4-methyl-1H-imidazol-2-yl]-4-methyl-1-piperidyl]-6-methyl-7H-pyrrolo[2,3-d]pyrimidine], the IC50 is 0.0001 to 1 µM.

`COc1ncc(-c2nc(C3(C)CCN(c4ncnc5[nH]c(C)cc45)CC3)[nH]c2C)cc1F` [P-3185, 4-[4-[4-(5-fluoro-6-methoxy-3-pyridyl)-5-methyl-1H-imidazol-2-yl]-4-methyl-1-piperidyl]-6-methyl-7H-pyrrolo[2,3-d]pyrimidine]: the IC50 fell in the range of 0.0001 to 1 µM.

Regarding `COc1ccc(-c2nc(C3(C)CCN(c4ncnc5[nH]c(C)cc45)CC3)[nH]c2C)cn1` [P-3186, 4-[4-[4-(6-methoxy-3-pyridyl)-5-methyl-1H-imidazol-2-yl]-4-methyl-1-piperidyl]-6-methyl-7H-pyrrolo[2,3-d]pyrimidine], the IC50 lay in the range of 0.0001 to 1 µM.

Compound `COc1ccc(-c2[nH]c(C3(C)CCN(c4ncnc5[nH]c(-c6cnn(C(F)F)c6)cc45)CC3)nc2C)cc1F` [P-3187, 6-[1-(difluoromethyl)pyrazol-4-yl]-4-[4-[5-(3-fluoro-4-methoxy-phenyl)-4-methyl-1H-imidazol-2-yl]-4-methyl-1-piperidyl]-7H-pyrrolo[2,3-d]pyrimidine] yielded an IC50 of 0.0001 to 1 µM.

Consider `COc1ccc(-c2cc3c(N4CCC(C)(c5nc(C)c(-c6ccc(OC)c(F)c6)[nH]5)CC4)ncnc3[nH]2)cn1` [P-3188, 4-[4-[5-(3-fluoro-4-methoxy-phenyl)-4-methyl-1H-imidazol-2-yl]-4-methyl-1-piperidyl]-6-(6-methoxy-3-pyridyl)-7H-pyrrolo[2,3-d]pyrimidine], for which the IC50 was 0.0001 to 1 µM.

The compound `Cc1nc(C2(C)CCN(c3ncnc4[nH]c(-c5cnn(C(F)F)c5)cc34)CC2)[nH]c1-c1ccc(C(F)F)cc1` [P-3189, 4-[4-[5-[4-(difluoromethyl)phenyl]-4-methyl-1H-imidazol-2-yl]-4-methyl-1-piperidyl]-6-[1-(difluoromethyl)pyrazol-4-yl]-7H-pyrrolo[2,3-d]pyrimidine] registered an IC50 of 0.0001 to 1 µM.

In turn, `COc1ccc(-c2cc3c(N4CCC(C)(c5nc(C)c(-c6ccc(C(F)F)cc6)[nH]5)CC4)ncnc3[nH]2)cn1` [P-3190, 4-[4-[5-[4-(difluoromethyl)phenyl]-4-methyl-1H-imidazol-2-yl]-4-methyl-1-piperidyl]-6-(6-methoxy-3-pyridyl)-7H-pyrrolo[2,3-d]pyrimidine] had an IC50 of 0.0001 to 1 µM.

In turn, `Cc1cc2c(N3CCC(C)(c4nc(C)c(-c5cccc(OC(F)F)c5)[nH]4)CC3)ncnc2[nH]1` [P-3191, 4-[4-[5-[3-(difluoromethoxy)phenyl]-4-methyl-1H-imidazol-2-yl]-4-methyl-1-piperidyl]-6-methyl-7H-pyrrolo[2,3-d]pyrimidine] yielded an IC50 of 0.0001 to 1 µM.

`Cc1nc(C2(C)CCN(c3ncnc4[nH]c(-c5cnn(C(F)F)c5)cc34)CC2)[nH]c1-c1cccc(OC(F)F)c1` [P-3192, 4-[4-[5-[3-(difluoromethoxy)phenyl]-4-methyl-1H-imidazol-2-yl]-4-methyl-1-piperidyl]-6-[1-(difluoromethyl)pyrazol-4-yl]-7H-pyrrolo[2,3-d]pyrimidine]: the IC50 fell in the range of 0.0001 to 1 µM.

The compound `COc1ccc(-c2cc3c(N4CCC(C)(c5nc(C)c(-c6cccc(OC(F)F)c6)[nH]5)CC4)ncnc3[nH]2)cn1` [P-3193, 4-[4-[5-[3-(difluoromethoxy)phenyl]-4-methyl-1H-imidazol-2-yl]-4-methyl-1-piperidyl]-6-(6-methoxy-3-pyridyl)-7H-pyrrolo[2,3-d]pyrimidine] showed an IC50 of 0.0001 to 1 µM.

As for `Cc1nc(C2(C)CCN(c3ncnc4[nH]c(-c5ccc(C#N)cc5)cc34)CC2)[nH]c1-c1cccc(OC(F)F)c1` [P-3194, 4-[4-[4-[5-[3-(difluoromethoxy)phenyl]-4-methyl-1H-imidazol-2-yl]-4-methyl-1-piperidyl]-7H-pyrrolo[2,3-d]pyrimidin-6-yl]benzonitrile], the IC50 lay in the range of 0.0001 to 1 µM.
